Data from patent US20260327240A1, “1,4-CINEOLE DERIVATIVE AND INTERMEDIATE THEREOF, HERBICIDE CONTAINING SAID DERIVATIVE AS ACTIVE INGREDIENT, METHOD FOR USING HERBICIDE, AND METHOD FOR PREPARING AGROCHEMICAL COMPOSITION” (HOKKO CHEMICAL INDUSTRY CO., LTD., priority 2023, published 2026).

Assays:
Type in all cases: in vivo
[1] = system: Echinochloa crus-galli var. formosensis; assay: Comparative Example: herbicidal effect test by application during growth period of paddy rice (three-leaf stage); settings: 504 h, 7.5 g per 10 ares, 21 days after application, triplicate, read-out: Weed inhibition rate (%)
Experimental: As an example, the herbicidal effect on Echinochloa crus-galli var. formosensis at the three-leaf stage was confirmed by the following method, and the results are specifically shown in Table 7 as a comparative example.
(§1) Herbicidal Effect Test by Application During Growth Period of Paddy Rice
Wagner pots with an area of […] were filled with paddy soil, followed by addition of water and incorporation of chemical fertilizer (N:P:K=16:16:16), after which puddling was performed. After that, 30 seeds of Echinochloa crus-galli var. formosensis were sown at a depth of 0 cm to 1 cm. Immediately after sowing, the pots were flooded and a water depth of approximately 3 cm was maintained. Subsequent management was conducted in a glass greenhouse. When Echinochloa crus-galli var. formosensis reached the three-leaf stage, an emulsifiable concentrate prepared according to Formulation Example 5 using the compound shown below was diluted with water, and a specified amount of the diluted solution was applied by dropper. The amount of the active ingredient to be applied was equivalent to 7.5 g per 10 ares. The test was conducted in triplicate for each chemical concentration group, and the weed inhibition rate (%) was determined 21 days after chemical application using the following formula (Math. 1).

[2] = system: Echinochloa crus-galli var. formosensis; assay: Test Example 2: herbicidal effect test by application during growth period of paddy rice; settings: 7 days after sowing, 120 g per 10 ares, 14 days after application
Experimental: as §1
(§2) Wagner pots with an area of 1/10,000 […] were filled with paddy soil, followed by addition of water and incorporation of chemical fertilizer (N:P:K=16:16:16), after which puddling was performed. After that, seeds of Echinochloa crus-galli var. formosensis, broad-leaved weeds (Lindemia pyxidaria, and Monochoria vaginalis), and Scirpus juncoides were sown at a depth of 0 cm to 1 cm, 30 seeds each. Immediately after sowing, the pots were flooded and a water depth of approximately 3 cm was maintained. Subsequent management was conducted in a glass greenhouse. Seven days after sowing, an emulsifiable concentrate prepared according to Formulation Example 5 using the compound shown below was diluted with water, and a specified amount of the diluted solution was applied by dropper. The amount of the active ingredient to be applied was equivalent to 120 g per 10 ares. The test was conducted in duplicate for each chemical concentration group, and the herbicidal effect was evaluated 14 days after chemical application using the same criteria as in Test Example 1.

Echinochloa crus-galli [3] = assay: Test Example 4: herbicidal effect test by stem and leaf treatment in upland field; settings: 7 days after sowing, 120 g per 10 ares, 14 days after application
Experimental: (§3) Herbicidal Effect Test by Stem and Leaf Treatment in Upland Field
(§4) Pots with an area of 36 cm^2 were filled with upland soil (alluvial loam), twenty seeds each of weeds of Digitaria ciliaris, Echinochloa crus-galli, Chenopodium album, and Amaranthus viridis were uniformly mixed with the top 1 cm layer of soil and the surface was lightly pressed down. Seven days after sowing, an emulsifiable concentrate prepared according to Formulation Example 5 using the compound shown below was diluted with water, and the diluted solution was sprayed onto the soil surface at a rate of 100 liters per 10 ares. The amount of the active ingredient to be applied was equivalent to 120 g per 10 ares. Fourteen days after chemical application, the herbicidal effect was evaluated according to the same criteria as in Test Example 1.

Digitaria ciliaris [4] = assay: as above; settings: 7 days after sowing, 120 g per 10 ares, 14 days after application
Experimental: as §3, §4

[5] = system: Echinochloa crus-galli var. formosensis; assay: Test Example 1: herbicidal effect test by soil application in paddy rice; settings: 120 g per 10 ares, 14 days after application
Experimental: (§5) Herbicidal Effect Test by Soil Application in Paddy Rice
as §2, with “(Lindernia pyxidaria” for “(Lindemia pyxidaria,”, “Immediately thereafter,” for “Seven days after sowing,”, “ares.” for “ares. The test was conducted in duplicate for each chemical concentration group, and the herbicidal effect was evaluated 14 days after chemical application using the same criteria as in Test Example 1.”
(§6) The present test was conducted in duplicate for each chemical concentration group, and the weed inhibition rate (%) was determined 14 days after chemical application using the following formula (Math. 1).

Scirpus juncoides [6] = assay: as above; settings: 120 g per 10 ares, 14 days after application
Experimental: as §5
as §2, with “(Lindernia pyxidaria” for “(Lindemia pyxidaria,”, “Immediately thereafter,” for “Seven days after sowing,”, “ares.” for “ares. The test was conducted in duplicate for each chemical concentration group, and the herbicidal effect was evaluated 14 days after chemical application using the same criteria as in Test Example 1.”
as §6

Chenopodium album = assay: Test Example 3: herbicidal effect test by soil application in upland field; settings: 1 day after sowing, 120 g per 10 ares, 14 days after application
Experimental: (§7) Herbicidal Effect Test by Soil Application in Upland Field
as §4, with “One day” for “Seven days”

Echinochloa crus-galli [7] = assay: as above; settings: 1 day after sowing, 120 g per 10 ares, 14 days after application
Experimental: as §7
as §4, with “One day” for “Seven days”

Digitaria ciliaris [8] = assay: as above; settings: 1 day after sowing, 120 g per 10 ares, 14 days after application
Experimental: as §7
as §4, with “One day” for “Seven days”

Amaranthus viridis [9] = assay: as above; settings: 1 day after sowing, 120 g per 10 ares, 14 days after application
Experimental: as §7
as §4, with “One day” for “Seven days”

Echinochloa crus-galli [10] = assay: Test Example 7: herbicidal effect test by soil application in upland field; settings: 1 day after sowing, 7.5 g per 10 ares, 14 days after application
Experimental: as §7
as §4, with “One day” for “Seven days”, “7.5” for “120”

Amaranthus viridis [11] = assay: as above; settings: 1 day after sowing, 7.5 g per 10 ares, 14 days after application
Experimental: as §7
as §4, with “One day” for “Seven days”, “7.5” for “120”

[12] = system: Echinochloa crus-galli var. formosensis; assay: Test Example 5: herbicidal effect test by soil application in paddy rice; settings: 7.5 g per 10 ares, 14 days after application
Experimental: as §5
as §2, with “Immediately thereafter,” for “Seven days after sowing,”, “7.5” for “120”, “ares.” for “ares. The test was conducted in duplicate for each chemical concentration group, and the herbicidal effect was evaluated 14 days after chemical application using the same criteria as in Test Example 1.”
(§8) The present test was conducted in duplicate for each chemical concentration group, and the herbicidal effect was evaluated 14 days after chemical application using the same criteria as in Test Example 1.

Scirpus juncoides [13] = assay: as above; settings: 7.5 g per 10 ares, 14 days after application
Experimental: as §5
as §2, with “Immediately thereafter,” for “Seven days after sowing,”, “7.5” for “120”, “ares.” for “ares. The test was conducted in duplicate for each chemical concentration group, and the herbicidal effect was evaluated 14 days after chemical application using the same criteria as in Test Example 1.”
as §8

Echinochloa crus-galli [14] = assay: Test Example 8: herbicidal effect test by stem and leaf treatment in upland field; settings: 7 days after sowing, 7.5 g per 10 ares, 14 days after application
Experimental: as §3
as §4, with “7.5” for “120”

| Structure (SMILES) | inhibition at 75 g/ha [1] | weed inhibition rate [2] | weed inhibition rate (Echinochloa crus-galli [3]) | weed inhibition rate (Digitaria ciliaris [4]) | weed inhibition rate [5] | weed inhibition rate (Scirpus juncoides [6]) | weed inhibition rate (Chenopodium album) | weed inhibition rate (Echinochloa crus-galli [7]) | weed inhibition rate (Digitaria ciliaris [8]) | weed inhibition rate (Amaranthus viridis [9]) | weed inhibition rate (Echinochloa crus-galli [10]) | weed inhibition rate (Amaranthus viridis [11]) | weed inhibition rate [12] | weed inhibition rate (Scirpus juncoides [13]) | weed inhibition rate (Echinochloa crus-galli [14]) |
| --- | --- | --- | --- | --- | --- | --- | --- | --- | --- | --- | --- | --- | --- | --- | --- |
| C=C1C(OCc2ccccc2C)C2(C)CCC1(C(C)C)O2 (stereo not drawn) | 20% |  |  |  |  |  |  |  |  |  |  |  |  |  |  |
| CC(C)[C@]12C[C@@H](OCc3ccccc3C(F)(F)F)[C@](C)(CC1=O)O2 [2-29, (1R,4S5R)-1-isopropyl-4-methyl-5-((2-(trifluoromethyl)benzyl)oxy)-7-oxabicyclo[2.2.1]heptan-2-one] |  | ≥ 80% | ≥ 80% | ≥ 80% | ≥ 80% | ≥ 80% | ≥ 80% | ≥ 80% | ≥ 80% | ≥ 80% | ≥ 80% | ≥ 80% | ≥ 80% | ≥ 80% | ≥ 80% |
